Assay results taken from ChEMBL document CHEMBL5390264, “Exploring Fatty Acid Mimetics as NR4A Ligands” (J Med Chem, 2023).
Activity calls are given as the source filed them. The rule behind the calls is not given here.

Legend:
Type in all cases: cell-based
[1] = target: Nuclear receptor subfamily 4 group A member 2 (Homo sapiens, UniProt P43354); experiment: Agonist activity at full length human Nurr1 transiently transfected in HEK293T cells co-transfected with pFR-Luc-NurRE incubated for 16 hrs by Gal4-hybrid reporter gene based Dual-glo luciferase assay
[2] = Selectivity ratio for agonist activity at PPARdelta LBD (unknown origin) transiently transfected in HEK293T cells to agonist activity at human NOR-1 LBD transiently transfected in HEK293T cells
[3] = target: Nuclear receptor subfamily 4immunitygroup A member 1 (Homo sapiens, UniProt P22736); experiment: Agonist activity at human Nur77 LBD transiently transfected in HEK293T cells incubated for 16 hrs by Gal4-hybrid reporter gene based Dual-glo luciferase assay
[4] = Selectivity ratio for agonist activity at PPARgamma LBD (unknown origin) transiently transfected in HEK293T cells to agonist activity at human Nur77 LBD transiently transfected in HEK293T cells
[5] = Selectivity ratio for agonist activity at RARalpha LBD (unknown origin) transiently transfected in HEK293T cells to agonist activity at human Nurr1 LBD transiently transfected in HEK293T cells
[6] = Selectivity ratio for agonist activity at THRalpha LBD (unknown origin) transiently transfected in HEK293T cells to agonist activity at human Nurr1 LBD transiently transfected in HEK293T cells
[7] = Selectivity ratio for agonist activity at PPARalpha LBD (unknown origin) transiently transfected in HEK293T cells to agonist activity at human NOR-1 LBD transiently transfected in HEK293T cells
[8] = target: T1, Thyroid hormone receptor alpha (Homo sapiens) (UniProt P10827); experiment: Agonist activity at THRalpha LBD (unknown origin) transiently transfected in HEK293T cells at 1 uM incubated for 16 hrs by Gal4-hybrid reporter gene based Dual-glo luciferase assay
T1 sequence (whole entry): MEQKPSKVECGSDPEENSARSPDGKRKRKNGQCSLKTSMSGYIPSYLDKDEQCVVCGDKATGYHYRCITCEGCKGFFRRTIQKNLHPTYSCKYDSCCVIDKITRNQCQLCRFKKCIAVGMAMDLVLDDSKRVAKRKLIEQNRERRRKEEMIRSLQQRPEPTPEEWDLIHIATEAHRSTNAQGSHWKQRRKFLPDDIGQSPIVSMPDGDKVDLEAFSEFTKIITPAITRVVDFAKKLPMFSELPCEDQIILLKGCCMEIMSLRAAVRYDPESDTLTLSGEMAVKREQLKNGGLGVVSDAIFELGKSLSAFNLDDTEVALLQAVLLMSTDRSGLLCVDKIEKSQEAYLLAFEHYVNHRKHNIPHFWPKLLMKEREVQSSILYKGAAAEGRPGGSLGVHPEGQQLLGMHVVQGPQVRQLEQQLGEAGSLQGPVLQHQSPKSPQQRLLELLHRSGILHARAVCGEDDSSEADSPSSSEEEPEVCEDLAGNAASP

[9] = Selectivity ratio for agonist activity at THRalpha LBD (unknown origin) transiently transfected in HEK293T cells to agonist activity at human NOR-1 LBD transiently transfected in HEK293T cells
[10] = target: T2, Retinoic acid receptor alpha (Homo sapiens) (UniProt P10276); experiment: Agonist activity at RARalpha LBD (unknown origin) transiently transfected in HEK293T cells at 1 uM incubated for 16 hrs by Gal4-hybrid reporter gene based Dual-glo luciferase assay
T2 sequence (whole entry): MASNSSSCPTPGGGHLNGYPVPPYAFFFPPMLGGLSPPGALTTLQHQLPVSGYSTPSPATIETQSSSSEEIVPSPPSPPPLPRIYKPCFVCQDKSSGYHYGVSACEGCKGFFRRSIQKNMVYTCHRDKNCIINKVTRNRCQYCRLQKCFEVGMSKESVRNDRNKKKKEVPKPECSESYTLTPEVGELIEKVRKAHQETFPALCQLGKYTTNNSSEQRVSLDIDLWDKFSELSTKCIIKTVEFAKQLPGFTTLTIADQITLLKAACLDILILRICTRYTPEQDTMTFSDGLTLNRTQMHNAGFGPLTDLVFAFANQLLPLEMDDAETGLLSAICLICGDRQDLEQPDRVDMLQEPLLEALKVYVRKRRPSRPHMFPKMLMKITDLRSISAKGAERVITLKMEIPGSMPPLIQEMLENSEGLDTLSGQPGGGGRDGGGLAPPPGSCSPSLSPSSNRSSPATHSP

Sequence of Nuclear receptor subfamily 4immunitygroup A member 1 (P22736 whole entry, the tested form may be a part): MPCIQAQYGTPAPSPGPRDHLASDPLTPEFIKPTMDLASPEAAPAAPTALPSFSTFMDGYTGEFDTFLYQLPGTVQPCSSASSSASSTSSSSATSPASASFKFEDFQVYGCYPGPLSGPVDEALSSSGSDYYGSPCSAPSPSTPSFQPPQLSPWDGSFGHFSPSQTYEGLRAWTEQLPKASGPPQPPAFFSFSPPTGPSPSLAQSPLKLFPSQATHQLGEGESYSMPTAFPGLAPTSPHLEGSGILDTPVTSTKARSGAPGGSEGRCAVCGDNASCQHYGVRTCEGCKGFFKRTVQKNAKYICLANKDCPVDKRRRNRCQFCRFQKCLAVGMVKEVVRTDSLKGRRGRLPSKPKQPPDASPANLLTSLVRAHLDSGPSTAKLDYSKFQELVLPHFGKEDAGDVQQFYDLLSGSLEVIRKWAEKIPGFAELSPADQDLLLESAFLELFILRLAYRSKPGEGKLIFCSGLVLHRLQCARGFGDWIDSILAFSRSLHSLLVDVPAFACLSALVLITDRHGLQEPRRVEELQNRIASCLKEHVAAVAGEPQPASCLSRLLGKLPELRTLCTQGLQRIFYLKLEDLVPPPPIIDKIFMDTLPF
Sequence of Nuclear receptor subfamily 4 group A member 2 (P43354 whole entry, the tested form may be a part): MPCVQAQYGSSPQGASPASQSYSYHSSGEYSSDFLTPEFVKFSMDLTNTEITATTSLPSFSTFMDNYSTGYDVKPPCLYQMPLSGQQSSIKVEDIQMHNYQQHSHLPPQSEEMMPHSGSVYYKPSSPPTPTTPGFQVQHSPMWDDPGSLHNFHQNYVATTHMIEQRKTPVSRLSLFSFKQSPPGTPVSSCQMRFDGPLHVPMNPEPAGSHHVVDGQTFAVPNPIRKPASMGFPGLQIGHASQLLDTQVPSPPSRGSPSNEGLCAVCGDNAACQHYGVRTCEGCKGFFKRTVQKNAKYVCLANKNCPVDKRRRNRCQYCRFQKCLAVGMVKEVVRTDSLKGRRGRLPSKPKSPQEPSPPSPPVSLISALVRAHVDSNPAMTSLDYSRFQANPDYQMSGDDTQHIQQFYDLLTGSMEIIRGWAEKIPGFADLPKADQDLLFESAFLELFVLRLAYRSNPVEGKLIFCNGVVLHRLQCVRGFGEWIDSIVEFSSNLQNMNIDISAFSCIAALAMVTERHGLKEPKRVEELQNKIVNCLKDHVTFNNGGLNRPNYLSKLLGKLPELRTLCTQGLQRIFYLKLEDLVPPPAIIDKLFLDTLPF

CC(C)(C)c1ccc(COc2cccc(C(=O)O)c2)cc1
EC50 [1]: 10 nM | Selectivity ratio [2]: > 30 | EC50 [3]: 140 nM | Selectivity ratio [4]: > 30 | Selectivity ratio [5]: > 30 | Selectivity ratio [6]: > 30 | Selectivity ratio [7]: > 30 | Activity [8]: inactive | Selectivity ratio [9]: > 30 | Activity [10]: inactive
